Source: patent US9150592B2, “Heterocyclic nuclear hormone receptor modulators” (AbbVie Inc., priority 2012, dated 2015)
pIC50: −log10 of the molar value.

Target: T1, Glucocorticoid Receptor (GR) (Homo sapiens, UniProt P04150)
T1 construct: purchased Invitrogen P2893
T1 sequence (P04150 1-777): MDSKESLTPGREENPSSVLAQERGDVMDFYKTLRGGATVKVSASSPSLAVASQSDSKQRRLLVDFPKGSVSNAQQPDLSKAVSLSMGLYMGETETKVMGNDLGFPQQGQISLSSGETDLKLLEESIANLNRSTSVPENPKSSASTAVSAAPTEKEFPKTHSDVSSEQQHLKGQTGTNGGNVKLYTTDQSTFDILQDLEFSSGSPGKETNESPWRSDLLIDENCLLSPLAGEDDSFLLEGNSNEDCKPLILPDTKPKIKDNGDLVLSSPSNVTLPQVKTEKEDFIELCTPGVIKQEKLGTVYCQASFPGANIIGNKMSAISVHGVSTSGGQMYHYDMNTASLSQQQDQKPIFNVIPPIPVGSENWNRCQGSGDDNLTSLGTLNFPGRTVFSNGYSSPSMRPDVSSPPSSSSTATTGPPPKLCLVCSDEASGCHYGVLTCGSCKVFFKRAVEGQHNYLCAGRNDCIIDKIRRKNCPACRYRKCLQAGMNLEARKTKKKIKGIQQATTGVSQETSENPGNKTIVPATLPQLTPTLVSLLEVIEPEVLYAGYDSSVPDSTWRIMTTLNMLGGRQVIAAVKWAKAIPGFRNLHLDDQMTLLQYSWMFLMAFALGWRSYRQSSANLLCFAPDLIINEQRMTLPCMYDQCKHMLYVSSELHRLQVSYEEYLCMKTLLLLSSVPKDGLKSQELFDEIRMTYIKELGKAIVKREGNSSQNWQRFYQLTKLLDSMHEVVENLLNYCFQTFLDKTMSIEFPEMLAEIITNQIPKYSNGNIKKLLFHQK
Assay: GR Fluorescence Polarization Assay (PolarScreen Glucocorticoid Receptor Competitor Assay, Red)
Conditions: IC50 class ranges, read-out: GR binding
Protocol: GR Fluorescence Polarization Assay
Fluorescence polarization assays were carried out using the PolarScreen™ Glucocorticoid Receptor Competitor Assay, Red from Invitrogen (P2893). The assay buffer was prepared according to the manufacturer's protocol and used to dilute the fluorescent glucocorticoid and GR. Compounds were prepared and serial diluted 1:4 in DMSO. Compound, fluorescent glucocorticoid and GR were added in a final volume of 20 μL and incubated overnight at 4° C. Fluorescent polarization was measured on the PerkinElmer Envision®.

Structure (SMILES) | pIC50
COc1ccccc1C1SCCNc2c1c(C)nn2C (stereo not drawn) [D.98] | < 5.00
Cc1ncccc1C(=O)N1CCC(C2SCCNc3c2c(-c2ccccn2)nn3C)CC1 (stereo not drawn) | < 5.00
CCn1nc(-c2ccccn2)c2c1NCCSC2c1ccc(C(=O)Nc2cccnc2C)cc1C (single isomer, unassigned) [M.61, 4-(1-ethyl-3-(pyridin-2-yl)-4,6,7,8-tetrahydro-1H-pyrazolo[3,4-e][1,4]thiazepin-4-yl)-3-methyl-N-(2-methylpyridin-3-yl)benzamide] | 6.00 to 7.00
Cc1cc(C#N)ccc1C1SCCNc2c1c(-c1ccccn1)nn2C (single isomer, unassigned) [M.21, 3-methyl-4-(1-methyl-3-(pyridin-2-yl)-4,6,7,8-tetrahydro-1H-pyrazolo[3,4-e][1,4]thiazepin-4-yl)benzonitrile] | > 7.00
Cc1ccc(C(=O)Nc2cccnc2C)cc1C1SC(C)(C)CNc2c1c(C1CC1)nn2C (stereo not drawn) [H.2] | < 5.00
Cc1nn(C)c2c1C(c1ccccn1)SCCN2 (stereo not drawn) [D.96] | < 5.00
Cc1ncccc1NC(=O)c1ccc(C2SCCNc3c2c(-c2ccccn2)nn3C)c(Cl)c1 (stereo not drawn) | > 7.00
Cn1nc(-c2ccccn2)c2c1NCCSC2c1ccc(-c2cncnc2)cc1Cl (stereo not drawn) [U.2] | 5.00 to 6.00
Cn1nc(-c2cccnc2)c2c1NCCSC2c1ccc(Cl)cc1Cl (stereo not drawn) [D.86] | 5.00 to 6.00
Cc1cc(CCC(C)(C)O)ccc1[C@H]1SC[C@@H](C)Nc2c1c(-c1ccccn1)nn2C (single isomer, unassigned) [M.43, 4-(4-(1,7-dimethyl-3-(pyridin-2-yl)-4,6,7,8-tetrahydro-1H-pyrazolo[3,4-e][1,4]thiazepin-4-yl)-3-methylphenyl)-2-methylbutan-2-ol] | 5.00 to 6.00
CC(=O)N1CCN(c2ccc(-c3ccc(C4SCCNc5c4c(-c4ccccn4)nn5C)c(Cl)c3)cn2)CC1 (stereo not drawn) [U.14] | 5.00 to 6.00
Cn1nc(-c2ccccn2)c2c1NCCSC2c1ccc(-c2cncc(C(N)=O)c2)cc1Cl (stereo not drawn) [U.7] | 5.00 to 6.00
Cn1nc(-c2ccc(C(=O)O)cn2)c2c1NCCSC2c1ccc(Cl)cc1Cl (stereo not drawn) | 5.00 to 6.00
Cc1cc(Cl)ccc1C1SCCNc2c1c(-c1ccccn1)nn2C (single isomer, unassigned) | > 7.00
CCn1nc(-c2ccccn2)c2c1N[C@H](C)CS[C@@H]2c1ccc(C#CC(C)(C)O)cc1C (single isomer, unassigned) [M.30, 4-(4-(1-ethyl-7-methyl-3-(pyridin-2-yl)-4,6,7,8-tetrahydro-1H-pyrazolo[3,4-e][1,4]thiazepin-4-yl)-3-methylphenyl)-2-methylbut-3-yn-2-ol] | 5.00 to 6.00
COCCn1cc(-c2ccc(C3SCCNc4c3c(-c3ccccn3)nn4C)c(Cl)c2)cn1 (stereo not drawn) [U.15] | 5.00 to 6.00
Cc1ncccc1NC(=O)N1CCC(C2SCCNc3c2c(-c2ccccn2)nn3C)CC1 (stereo not drawn) | < 5.00
Cc1cc(CCCO)ccc1[C@H]1SC[C@@H](C)Nc2c1c(-c1ccccn1)nn2C (single isomer, unassigned) [M.50, 3-(4-(1,7-dimethyl-3-(pyridin-2-yl)-4,6,7,8-tetrahydro-1H-pyrazolo[3,4-e][1,4]thiazepin-4-yl)-3-methylphenyl)propan-1-ol] | 5.00 to 6.00
Cc1ncccc1NC(=O)c1ccc([C@H]2SC[C@H](C)Nc3c2c(-c2ccccn2)nn3C)c(C#N)c1 (single isomer, unassigned) [M.18, 3-cyano-4-(1,7-dimethyl-3-(pyridin-2-yl)-4,6,7,8-tetrahydro-1H-pyrazolo[3,4-e][1,4]thiazepin-4-yl)-N-(2-methylpyridin-3-yl)benzamide] | 5.00 to 6.00
Cn1nc(-c2ccccn2)c2c1N(CC(N)=O)CCSC2c1ccc(Cl)cc1Cl (stereo not drawn) | 5.00 to 6.00
Cn1nc(-c2ccccn2)c2c1NCCSC2c1ccc(-c2cnn(CCN3CCOCC3)c2)cc1Cl (stereo not drawn) [U.5] | 5.00 to 6.00
CNC(=O)c1ccc(-c2nn(C)c3c2C(c2ccc(Cl)cc2Cl)SCCN3)nc1 (stereo not drawn) [I.3] | 5.00 to 6.00
Cc1ncccc1NC(=O)c1ccc([C@H]2SC[C@@H](C)Nc3c2c(-c2ccccn2)nn3C)c(C#N)c1 (single isomer, unassigned) [M.19, 3-cyano-4-(1,7-dimethyl-3-(pyridin-2-yl)-4,6,7,8-tetrahydro-1H-pyrazolo[3,4-e][1,4]thiazepin-4-yl)-N-(2-methylpyridin-3-yl)benzamide] | 5.00 to 6.00
CCn1nc(-c2ccccn2)c2c1N[C@@H](C)CS[C@@H]2c1ccc(C#CCN(C)C)cc1C (single isomer, unassigned) [M.64, 3-(4-(1-ethyl-7-methyl-3-(pyridin-2-yl)-4,6,7,8-tetrahydro-1H-pyrazolo[3,4-e][1,4]thiazepin-4-yl)-3-methylphenyl)-N,N-dimethylprop-2-yn-1-amine] | 5.00 to 6.00
Cc1cc(Cl)ccc1C1SCC(C)Nc2c1c(-c1ccccn1)nn2C (single isomer, unassigned) | > 7.00

Now from value to molecule:

pIC50 | Structure (SMILES)
5.00 to 6.00 | Cc1cc(C(=O)Nc2cccnc2C)ccc1C1CCC(=O)Nc2c1c(C)nn2C (stereo not drawn) [O.1, 4-(1,3-Dimethyl-7-oxo-1,4,5,6,7,8-hexahydropyrazolo[3,4-b]azepin-4-yl)-3-methyl-N-(2-methylpyridin-3-yl)benzamide]
6.00 to 7.00 | Cc1cc(C#CCO)ccc1[C@H]1SC[C@@H](C)Nc2c1c(-c1ccccn1)nn2C (single isomer, unassigned) [M.69, 3-(4-(1,7-dimethyl-3-(pyridin-2-yl)-4,6,7,8-tetrahydro-1H-pyrazolo[3,4-e][1,4]thiazepin-4-yl)-3-methylphenyl)prop-2-yn-1-ol]
6.00 to 7.00 | CCn1nc(-c2ccccn2)c2c1NCCSC2c1ccc(C(=O)Nc2nnn[nH]2)cc1C (stereo not drawn) [S.6]
5.00 to 6.00 | CCn1nc(-c2ccccn2)c2c1N[C@@H](C)CS[C@@H]2c1ccc(C#CC(C)(C)O)cc1C (single isomer, unassigned) [M.29, 4-(4-(1-ethyl-7-methyl-3-(pyridin-2-yl)-4,6,7,8-tetrahydro-1H-pyrazolo[3,4-e][1,4]thiazepin-4-yl)-3-methylphenyl)-2-methylbut-3-yn-2-ol]
5.00 to 6.00 | Cc1cc(C#N)ccc1C1SC(C)CNc2c1c(C)nn2C (stereo not drawn) [G.11]
6.00 to 7.00 | Cc1ccc(Oc2ccc(C3SC(C)(C)CNc4c3c(C)nn4C)cc2)cc1 (stereo not drawn) [D.78]
5.00 to 6.00 | Cn1nc(-c2ccccn2)c2c1NCCSC2c1ccc(-c2cnc(N3CCOCC3)nc2)cc1Cl (stereo not drawn) [U.19]
5.00 to 6.00 | Cc1cc(C(=O)Nc2cccnc2C)ccc1[C@H]1SC[C@H](C)Nc2c1c(-c1ccncn1)nn2C (single isomer, unassigned) [M.59, 4-(1,7-dimethyl-3-(pyrimidin-4-yl)-4,6,7,8-tetrahydro-1H-pyrazolo[3,4-e][1,4]thiazepin-4-yl)-3-methyl-N-(2-methylpyridin-3-yl)benzamide]
6.00 to 7.00 | CNC(=O)c1ccc(C2SCCNc3c2c(-c2ccccn2)nn3C)c(Cl)c1 (stereo not drawn) [I.2]
6.00 to 7.00 | CCn1nc(-c2ccccn2)c2c1N[C@@H](C)CS[C@@H]2c1ccc(CCC(C)(C)O)cc1C (single isomer, unassigned) [M.37, 4-(4-(1-ethyl-7-methyl-3-(pyridin-2-yl)-4,6,7,8-tetrahydro-1H-pyrazolo[3,4-e][1,4]thiazepin-4-yl)-3-methylphenyl)-2-methylbutan-2-ol]
6.00 to 7.00 | Cn1nc(-c2ccccn2)c2c1NCCSC2c1ccc(-c2ccncc2C#N)cc1Cl (stereo not drawn) [U.9]
6.00 to 7.00 | Cc1cc(CCC(C)(C)O)ccc1[C@H]1SC[C@H](C)Nc2c1c(-c1ccccn1)nn2C (single isomer, unassigned) [M.41, 4-(4-(1,7-dimethyl-3-(pyridin-2-yl)-4,6,7,8-tetrahydro-1H-pyrazolo[3,4-e][1,4]thiazepin-4-yl)-3-methylphenyl)-2-methylbutan-2-ol]
6.00 to 7.00 | Cn1nc(-c2ccccn2)c2c1NCCSC2c1ccc(-c2cnn(CCC#N)c2)cc1Cl (stereo not drawn) [U.16]
6.00 to 7.00 | Cn1nc(-c2ccccn2)c2c1NCCSC2c1ccc(-c2cnn(CC(N)=O)c2)cc1Cl (stereo not drawn) [U.17]
6.00 to 7.00 | CCn1nc(-c2ccccn2)c2c1N[C@H](C)CS[C@@H]2c1ccc(CCCO)cc1C (single isomer, unassigned) [M.34, 3-(4-(1-ethyl-7-methyl-3-(pyridin-2-yl)-4,6,7,8-tetrahydro-1H-pyrazolo[3,4-e][1,4]thiazepin-4-yl)-3-methylphenyl)propan-1-ol]
6.00 to 7.00 | CCn1nc(-c2ccccn2)c2c1NCCSC2c1ccc(C(=O)Nc2onc(C)c2C#N)cc1C (stereo not drawn) [S.7]
6.00 to 7.00 | Cc1cc(Br)ccc1[C@H]1SC[C@@H](C)Nc2c1c(-c1nnco1)nn2C [M.63, 2-(4-(4-bromo-2-methylphenyl)-1,7-dimethyl-4,6,7,8-tetrahydro-1H-pyrazolo[3,4-e][1,4]thiazepin-3-yl)-1,3,4-oxadiazole]
